Key:
[1] = system: hepatic fatty acid synthesis; test: In vivo inhibition of rat hepatic fatty acid synthesis; conditions: oral
Procedure: In vivo measurement of fatty acid synthesis inhibition in mammals. Incorporation of [2-^14C]acetate into saponifiable lipids in the livers of mammals (e.g. Sprague Dawley rats, Charles River Laboratories, Boston, Mass. or Harlan Laboratories, Indianapolis, Ind.) can be measured as described previously (Harwood Jr. H. J. et al., J Biol Chem, 39: 37099-37111 (2003)). For example, animals given food and water ad libitum are treated orally at volume of 1.0 ml/200 g of body weight with either an aqueous solution containing 0.5% methyl cellulose (vehicle) or an aqueous solution containing 0.5% methyl cellulose containing test compound. One hour after compound administration, animals receive an intraperitoneal injection of [2-^14C]acetate (0.02 mL, 1 mCi/mL; 50 mCi/mmol. One hour after radiolabel administration, animals are sacrificed by CO2 asphyxiation, and two liver pieces (about 0.75 g each) are removed and saponified at 70° C. for 120 min in 2.5 M NaOH (1.5 mL). After saponification, absolute EtOH (2.5 mL) is added to each sample and the solutions are mixed and allowed to stand overnight. Petroleum ether (4.8 mL) is then added to each sample, and after vigorous shaking (2 min) the mixtures are centrifuged at 1000×g (5 min). The petroleum ether layer containing the nonsaponifiable lipids is removed and discarded. The remaining aqueous layer is acidified (pH<2) by addition of 12 M HCl (0.6 mL) and extracted two times with petroleum ether (4.8 mL). The pooled organic fractions are transferred to liquid scintillation vials, dried under nitrogen, dissolved in Aquasol scintillation fluid (7 ml), and radioactivity is quantified by liquid scintillation counting. Inhibition of fatty acid synthesis by the test compound is expressed as a relative percent inhibition of measured incorporation of [2-^14C]acetate into saponifiable lipids during the interval between [2-^14C]acetate injection and CO2 asphyxiation in animals receiving test compound, compared to control animals receiving only the vehicle.
Compounds of the present invention, and salts thereof, were evaluated for inhibition of fatty acid synthesis as described above.

hACC1 = biological target: T1, hACC1 (Homo sapiens, UniProt Q13085); test: [14C]bicarbonate incorporation assay, overall ACC activity; format: biochemical; conditions: recombinant hACC1, overall ACC activity
T1 construct: PCR primers were designed for full-length hACC1 and hACC2 using GenBank submissions AY237919 and AJ575592, respectively; His tag (C); made in house; host or cells: baculovirus, Sf9 insect cells
How it was run: (§1)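 His-tagged full-length hACC1 or hACC2 (residues 1-148 deleted, Met-Gly added), expressed in sf9 cells with biotin and purified, were assayed by [14C]bicarbonate incorporation into acetyl-CoA. Reactions at pH 7.4 with 2 mM acetyl-CoA, 12 mM NaHCO3 and 1% DMSO were started with 2 mM ATP and run 10 min at 37° C. Acid-stable label was counted and IC50 obtained from dose-response fits.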

hACC2 = biological target: T2, hACC2 (Homo sapiens, UniProt O00763); test: as above; format: biochemical; conditions: recombinant hACC2, overall ACC activity
T2 construct: delete amino acids 1-148 and add Met-Gly in front of Lys149 in the final product; His tag (C); made in house; host or cells: baculovirus, Sf9 insect cells
How it was run: as §1

T2 sequence (O00763 149-2458 limits assumed): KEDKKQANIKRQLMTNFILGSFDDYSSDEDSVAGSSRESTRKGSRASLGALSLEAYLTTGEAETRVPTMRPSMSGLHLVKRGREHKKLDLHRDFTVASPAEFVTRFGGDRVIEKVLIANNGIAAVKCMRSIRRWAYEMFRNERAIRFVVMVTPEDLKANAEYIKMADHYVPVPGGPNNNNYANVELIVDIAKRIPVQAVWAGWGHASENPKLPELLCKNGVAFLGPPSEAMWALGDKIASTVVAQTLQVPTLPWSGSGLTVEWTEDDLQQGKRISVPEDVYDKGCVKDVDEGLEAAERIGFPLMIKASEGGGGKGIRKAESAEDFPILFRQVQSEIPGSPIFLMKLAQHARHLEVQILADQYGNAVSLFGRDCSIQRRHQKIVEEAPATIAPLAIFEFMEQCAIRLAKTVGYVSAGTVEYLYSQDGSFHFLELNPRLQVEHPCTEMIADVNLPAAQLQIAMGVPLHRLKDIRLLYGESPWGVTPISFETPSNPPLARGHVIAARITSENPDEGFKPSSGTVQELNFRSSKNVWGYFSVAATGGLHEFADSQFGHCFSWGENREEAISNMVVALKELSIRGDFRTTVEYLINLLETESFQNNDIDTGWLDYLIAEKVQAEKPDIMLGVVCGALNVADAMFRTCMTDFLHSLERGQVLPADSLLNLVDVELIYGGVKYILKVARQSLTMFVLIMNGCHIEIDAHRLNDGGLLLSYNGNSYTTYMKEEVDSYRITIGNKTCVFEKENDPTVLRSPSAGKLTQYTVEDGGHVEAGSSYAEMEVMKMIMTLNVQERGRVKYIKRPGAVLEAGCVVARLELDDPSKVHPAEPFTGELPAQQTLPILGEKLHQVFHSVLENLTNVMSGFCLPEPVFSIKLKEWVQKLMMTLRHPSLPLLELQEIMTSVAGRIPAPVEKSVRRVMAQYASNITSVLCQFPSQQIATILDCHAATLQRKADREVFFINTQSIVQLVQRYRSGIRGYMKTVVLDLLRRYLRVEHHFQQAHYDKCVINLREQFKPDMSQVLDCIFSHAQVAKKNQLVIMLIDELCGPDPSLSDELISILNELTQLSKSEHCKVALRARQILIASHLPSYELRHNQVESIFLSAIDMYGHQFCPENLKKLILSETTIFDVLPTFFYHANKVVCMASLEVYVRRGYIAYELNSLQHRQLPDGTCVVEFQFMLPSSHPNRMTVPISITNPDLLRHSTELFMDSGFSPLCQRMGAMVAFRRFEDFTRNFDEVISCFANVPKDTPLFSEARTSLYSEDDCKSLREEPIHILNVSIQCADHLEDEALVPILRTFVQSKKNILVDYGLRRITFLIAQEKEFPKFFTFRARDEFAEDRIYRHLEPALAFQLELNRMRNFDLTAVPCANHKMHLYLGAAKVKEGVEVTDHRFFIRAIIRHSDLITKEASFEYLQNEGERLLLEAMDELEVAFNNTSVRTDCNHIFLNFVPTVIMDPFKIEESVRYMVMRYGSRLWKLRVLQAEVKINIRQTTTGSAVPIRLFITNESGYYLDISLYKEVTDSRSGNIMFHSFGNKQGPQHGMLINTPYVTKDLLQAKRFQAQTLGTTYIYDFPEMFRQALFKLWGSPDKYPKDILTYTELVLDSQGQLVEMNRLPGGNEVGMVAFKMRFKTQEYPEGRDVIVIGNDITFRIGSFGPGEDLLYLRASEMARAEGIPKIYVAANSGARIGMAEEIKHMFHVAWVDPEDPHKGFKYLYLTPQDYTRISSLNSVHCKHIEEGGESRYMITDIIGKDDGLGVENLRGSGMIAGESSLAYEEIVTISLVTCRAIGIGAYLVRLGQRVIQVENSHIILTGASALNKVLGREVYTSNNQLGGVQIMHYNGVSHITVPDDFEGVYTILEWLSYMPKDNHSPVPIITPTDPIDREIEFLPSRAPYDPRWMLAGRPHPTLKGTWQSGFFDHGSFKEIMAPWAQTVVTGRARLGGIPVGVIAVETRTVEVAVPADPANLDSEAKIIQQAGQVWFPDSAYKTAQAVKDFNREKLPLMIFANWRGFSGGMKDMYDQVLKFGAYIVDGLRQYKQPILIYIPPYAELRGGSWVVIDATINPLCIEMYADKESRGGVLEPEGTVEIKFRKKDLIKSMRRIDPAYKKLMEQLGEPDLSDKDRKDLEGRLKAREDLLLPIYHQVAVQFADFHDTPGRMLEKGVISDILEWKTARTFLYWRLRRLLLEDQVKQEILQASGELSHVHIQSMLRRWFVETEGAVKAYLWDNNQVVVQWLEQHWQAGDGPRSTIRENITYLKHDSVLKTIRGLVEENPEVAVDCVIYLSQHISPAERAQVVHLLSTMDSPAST

Row | IC50 (hACC1) [nM] | IC50 (hACC2) [nM] | SMILES | Percent Inhibition at 10 mg/Kg [1] [%] | Percent Inhibition at 30 mg/Kg [1] [%]
1 | 26 | 23 | COc1ccc2c(c1)C(=O)NC1(CCN(C(=O)c3cc(OC)c4cccc(OC)c4n3)CC1)O2 [Compound 150] | 20 | 54
2 | 7.5 | 7.4 | COc1cc(C(=O)N2CCC3(CC2)NC(=O)c2cc(OC(C)C)ccc2O3)nc2c(OC)cccc12 [Compound 169] | 30 | 60

Row | SMILES | IC50 (hACC1) [nM] | IC50 (hACC2) [nM] | Percent Inhibition at 10 mg/Kg [1] [%] | Percent Inhibition at 30 mg/Kg [1] [%]
3 | COc1cc(C(=O)N2CCC3(CC2)NC(=O)c2cc(Br)ccc2O3)nc2c(OC)cccc12 [Compound 2, 6-Bromo-1′-[(4,8-dimethoxyquinoline-2-yl)carbonyl]spiro[2H-1,3-benzoxazine-2,4′-piperidine]-4(3H)-one] | 88 | 51 |  | 

— patent US8110570B2, “Modulators of acetyl-coenzyme A carboxylase and methods of use thereof” (Cropsolution, Inc., priority 2008, dated 2012)
